The source of these data is patent publication US6166290A, “Glutathione-S-conjugate transport in plants” (The Trustees of the University of Pennsylvania, priority 1997, dated 2000).

As a reminder, the Km is the substrate concentration at which the rate is half of its maximum.

Experiment [1] deals with DTY167 cells. The experiment can be described thus: Growth inhibition of DTY167 (ycf1Δ mutant) cells by CDNB. Format: cell-based. The following applies: Saccharomyces cerevisiae, 24 hours, read-out: diminution of optical density of culture. As for the experimental part:
(§1) FIGS. 1A-1B are a series of graphs depicting differential sensitivities of DYT165 cells (wild type, FIG. 1A) and DTY167 cells (ycf1Δ mutant, FIG. 1B) to growth inhibition by 1-chloro-2,4-dinitrobenzene (CDNB). Cells were grown at 30° C. for 24 hours to an OD600 nm of approximately 1.4 in YPD medium before inoculation of aliquots into 15 ml volumes of the same medium containing 0-60 μM CDNB. OD600 nm was measured at the times indicated.
(§2) Two strains of S. cerevisiae were used in these studies: DTY165 (MATα ura3-52 his6 leu2-3,-112 his3-Δ200 trp1-901 lys2-801 suc2-Δ) and the isogenic ycf1Δ mutant strain, DTY167 (MATα ura 3-52 his6 leu2-3,-112 his3-Δ200 trp 1-901 lys2-801 suc2-Δ, ycf1::hisG). The strains were routinely grown in rich (YPD) medium, or, when transformed with plasmid containing functional YCF1 gene, in synthetic complete medium (Sherman et al., 1983, Methods in Yeast Genetics, Cold Spring Harbor Laboratory, New York) or AHC medium (Kim et al., 1994, supra) lacking the appropriate amino acids. Escherichia coli strains XL1-blue (Stratagene) and DH11S were employed for the construction and maintenance of plasmid stocks (Ausubel et al., 1987, Current Protocols in Molecular Biology, Wiley, New York).
(§3) The isogenic wild type strain DTY165 and the ycf1Δ mutant strain, DTY167, were indistinguishable during growth in YPD medium lacking CDNB; both strains grew at the same rate after a brief lag. However, the addition of CDNB to the culture medium caused a greater retardation of the growth of DTY167 cells (FIG. 1B) than DTY165 cells (FIG. 1A). […] The optical densities of the DTY167 cultures were diminished by 65, 82, 85, and 91% by 40, 50, 60, and 70 μM CDNB, respectively, after 24 hours of incubation (FIG. 1B), whereas the corresponding diminutions for the DTY165 cultures were 14, 31, 59, and 92% (FIG. 1A). The increase in sensitivity to CDNB conferred by deletion of the YCF1 gene was similar to that seen with cadmium.

The target in experiment [2] is T1, YCF1 (vacuolar membrane vesicles purified from DTY165 cells) (Saccharomyces cerevisiae, UniProt P39109).
T1 construct: endogenous in cells; host or cells: S. cerevisiae DTY165 (wild type YCF1), vacuolar membrane vesicles
Nature of the experiment: biochemical. The class given is biochemical. The note with it: 24 h, read-out: increase of 109Cd.GS2 uptake into vesicles from pretreated cells. As for the experimental part: In experiments involving cadmium transport, dithiothreitol and EGTA were removed from the suspension medium to prevent the attenuation of YCF1-dependent Cd^2+ transport otherwise exerted by these compounds. Vesiculated vacuolar membranes were subjected to three cycles of 50-fold dilution into simplified suspension medium (1.1 M glycerol, 5 mM Tris-Mes, pH 8.0), centrifugation at 100,000× g for 35 minutes and resuspension in the same medium before use.
Singly radiolabeled ^109 Cd.GSn and doubly radio-labeled ^109 Cd[^3 H].GS^n complexes were prepared by sequential gel-filtrationand anion-exchange chromatography of the reaction products generated by incubating 20 mM ^109 CdSO4 (78.4 mCi/mmol) with 40 mM GSH or 40 mM [^3 H]GSH (240 mCi/mmol) in 15 ml 10 mM phosphate buffer (pH 8.0) containing 150 mM KNO3 at 45° C. for 24 hours. For gel-filtration, 2 ml aliquots of the reaction mixture were applied to a column (40×1.5 cm ID) packed with water-equilibrated Sephadex G-1 5, eluted with deionized water and ^109 Cd and/or ^3 H in the fractions was measured by liquid scintillation counting. The fractions encompassed by each of the two ^109 Cd.GSn peaks identified were pooled, lyophilized and redissolved in 4 ml of loading buffer (5 mM Tris-Mes, pH 8.0). For anion-exchange chromatography, 0.5 ml aliquots of the resuspended lyophilizates from gel-filtration chromatography were applied to a Mono-Q HR5/5 column (Pharmacia) equilibrated with the same buffer. Elution was with a linear gradient of NaCl (0.5 ml/minute; 0-500 mM) dissolved in loading buffer. The individual fractions corresponding to the major peaks of ^109 Cd obtained from the Mono-Q column (one each for the peaks resolved by gel-filtration chromatography) were pooled, lyophilized and resuspended in 4 ml deionized water after liquid scintillation counting.
MgATP-energized, uncoupler-insensitive ^109 Cd^2+ uptake by vacuolar membrane vesicles was measured at 25° C. in 200 μl reaction volumes containing 3 mM ATP, 3 mM MgSO4, 5 μM gramicidin-D, 10 mM creatine phosphate, 16 units/ml creatine kinase, 50 mM KCl, 400 mM sorbitol, 25 mM Tris-Mes (pH 8.0) and the indicated concentrations of ^109 CdSO4, GSH or ^109 Cd- and/or ^3 H-labeled purified Cd.GSn complexes as described herein except that the wash media contained 100 μM CdSO4 in addition to sorbitol (400 mM) and Tris-Mes (3 mM, pH 8.0).

For experiment [3], the system named is DTY165 cells. The experiment can be described thus: Growth inhibition of DTY165 (wild type) cells by CDNB. Format: cell-based. The following applies: Saccharomyces cerevisiae, 24 hours, read-out: diminution of optical density of culture. As for the experimental part: as §1, §2, §3
For experiment [4], the target named is T1, YCF1 (vacuolar membrane vesicles purified from DTY165 cells). The experiment can be described thus: [3H]DNP-GS uptake by vacuolar membrane vesicles purified from DTY165 cells. The following applies: 24 h, read-out: increase of [3H]DNP-GS uptake into vesicles from pretreated cells. The class given is biochemical. As for the experimental part: For the routine preparation of vacuolar membrane vesicles, 15 ml of stationary phase cultures of DTY165 or DTY167 were diluted into 1-liter volumes of fresh YPD medium, grown for 24 hours at 30° C. to an OD600 nm of approximately 0.8 and collected by centrifugation. After washing with distilled water, the cells were converted to spheroplasts with Zymolyase 20T (ICN) (Kim et al., 1994, supra) and intact vacuoles were isolated by flotation centrifugation of spheroplast lysates on Ficoll 400 step gradients as described by Roberts et al. (1991, Methods. Enzymol. 194:644-661). Both the spheroplast lysis buffer and Ficoll gradients contained 2 mg/ml bovine serum albumin, 1 μg/ml aprotinin, 1 μg/ml leupeptin, 1 μg/ml pepstatin, and 1 mM PMSF to minimize proteolysis. The resulting vacuole fraction was vesiculated in 5 mM MgCl2, 25 mM KCl, 10 mM Tris-Mes (pH 6.9) containing 2 mg/ml bovine serum albumin, 1 μg/ml aprotinin, 1 μg/ml leupeptin, 1 μg/ml pepstatin, and 1 mM PMSF, pelleted by centrifugation at 37,000× g for 25 min, and resuspended in suspension medium (1.1 M glycerol, 2 mM dithiothreitol, 1 mM Tris-EGTA, 2 mg/ml bovine serum albumin, 1 μg/ml aprotinin, 1 μg/ml leupeptin, 1 μg/ml pepstatin, 1 mM PMSF, 5 mM Tris-Mes, pH 7.6) (Kim et al., 1995, J. Biol. Chem. 270:2630-2635).
Unless otherwise indicated, [^3 H]DNP-GS uptake was measured at 25° C. in 200 μl reaction volumes containing 3 mM ATP, 3 mM MgSO4, 5 μM gramicidin-D, 10 mM creatine phosphate, 16 units/ml creatine kinase, 50 mM KC 1, 1 mg/ml bovine serum albumin, 400 mM sorbitol, 25 mM Tris-Mes (pH 8.0), and 66.2 μM [^3 H]DNP-GS (8.7 mCi/mmol) (Li et al., 1995, supra). […] Uptake was initiated by the addition of vacuolar membrane vesicles (10-15 μg of membrane protein), brief mixing of the samples on a vortex mixer and uptake was then allowed to proceed for 1-60 minutes. Uptake was terminated by the addition of 1 ml of ice-cold wash medium (400 mM sorbitol, 3 mM Tris-Mes, pH 8.0) and vacuum filtration of the suspension through prewetted Millipore HA cellulose nitrate membrane filters (pore diameter, 0.45 μm). The filters were rinsed twice with 1 ml of ice-cold wash medium and air-dried, and radioactivity was determined by liquid scintillation counting in BCS mixture (Amersham Corp.). Nonenergized [^3 H]DNP-GS uptake and extravesicular solution trapped on the filters were enumerated by the same procedure except that ATP and Mg^2 +were omitted from the uptake medium.

Experiment [5] relates to endogenous GS-X pump of plant vacuolar membranes. The note with it: read-out: Km for transport by endogenous plant vacuolar GS-X pump; cited from earlier work.
Experiment [6] addresses T2, AtMRP2 (Arabidopsis thaliana, UniProt Q42093).
T2 construct: S. cerevisiae DTY168 (ycf1 null) vacuolar-enriched membrane vesicles
The experiment can be described thus: AtMRP2-dependent uptake by membrane vesicles from pYES3-AtMRP2-transformed DTY168 cells. The class given is biochemical. The note with it: 50 μM. As for the experimental part: (§4) Cells were grown and vacuolar membrane-enriched vesicles were prepared as described (Kim et al., 1995, J Biol. Chem. 270:2630-2635-). […] Uptake was terminated by the addition of 1 ml ice-cold wash medium (400 mM sorbitol/3 mM Tris-Mes, pH 8.0) and vacuum filtration of the suspension through prewetted Millipore HA cellulose nitrate filters (pore size 0.45 μm). The filters were rinsed twice with wash medium, and the retained radioactivity was determined by liquid scintillation counting. Nonenergized uptake was estimated by the same procedure except that ATP was omitted from the uptake medium.
Membranes from DTY168/pYES3-AtMRP2 cells were incubated for 10 minutes in standard uptake medium containing 61.3 μM [^3 H]DNP-GS after which time 200 mM glucose and 50 units/ml hexokinase (Type F-300 from baker's yeast) were added. […] Control samples were treated identically except that no additions were made after the initial 10 minute incubation period.

Experiment [7] has as its target T3, AtMRP1 (Arabidopsis thaliana, UniProt Q9C8G9).
T3 construct: S. cerevisiae DTY168 (ycf1 null) vacuolar-enriched membrane vesicles
Nature of the experiment: AtMRP1-dependent uptake by membrane vesicles from pYES3-AtMRP1-transformed DTY168 cells. Also noted: rate of C3G-GS uptake: unit not given here. The note with it: 50 μM. The class given is biochemical. As for the experimental part:
S. cerevisiae strain DTY168 (MATα his6, leu2-3, -112, ura3-52 ycf1::hisG) was transformed with pYES3-AtMRP1 or empty vector lacking the AtMRP1 insert (pYES3) by the LiOAc/PEG method (Giest et al., 1991, Yeast 7:253-263) and selected for uracil prototrophy by plating on AHC medium containing tryptophan (Kim et al., 1994, supra).
For the preparation of membrane vesicles, 15 ml volumes of stationary phase cultures of the transformants were diluted into 1 L of fresh AHC medium and grown to an OD600 nm of about 1.2. Membrane vesicles were purified as described herein and in Kim et al. (1995, supra).
[…] μl reaction volumes containing 3 mM ATP, 3 mM MgSO4, 5 μM gramicidin-D, 10 mM creatine phosphate, 16 units/ml creatine kinase, 50 mM KCl, 1 mg/ml BSA, 400 mM sorbitol, 25 mM Tris-Mes ([…]).
as §4

Experiment [8] deals with vacuolar GS-X pump (vacuolar membrane vesicles, V. radiata hypocotyls). Nature of the experiment: GS-conjugate uptake by vacuolar membrane vesicles from etiolated hypocotyls of V. radiata. The class given is biochemical, Vigna radiata. The following applies: V. radiata. As for the experimental part:
Values shown are means ±SE (n=3).
Vacuolar membrane vesicles were purified from etiolated hypocotyls of V. radiata cv.
Unless otherwise indicated, [^3 H]medicarpin or [3H]medicarpin-GS uptake was measured at 25° C. in 200 μl reaction volumes containing 3 mM ATP, 3 mM MgSO4, 10 mM creatine phosphate, 16 U/ml creatine kinase, 50 mM KCl, 0.1% (w/v) BSA, 400 mM sorbitol and 25 mM Tris-Mes buffer, pH 8.0. Uptake was initiated by the addition of 12 μl membrane vesicles (30-40 μg protein) and brief mixing of the samples on a vortex mixer. Uptake was terminated by the addition of 1 ml ice-cold wash medium (400 mM sorbitol, 3 mM Tris-Mes, pH 8.0) and vacuum filtration of the suspension through prewetted HA cellulose nitrate filters (pore diameter 0.45 μm). The filters were rinsed twice with a 1 ml ice-cold wash medium, air-dried and radioactivity was determined by liquid scintillation counting.

Experiment [9] has the same test system. The note with it: cited from earlier work.
The test system of experiment [10] is vacuolar GS-X pump (vacuolar membrane vesicles, Z. mays roots). Nature of the experiment: GS-conjugate uptake by vacuolar membrane vesicles from roots of Z. mays. Format: biochemical, Zea mays.
Where [11] appears, read: read-out: Km for MgATP-dependent, uncoupler-insensitive uptake.

T1 sequence (P39109 whole entry): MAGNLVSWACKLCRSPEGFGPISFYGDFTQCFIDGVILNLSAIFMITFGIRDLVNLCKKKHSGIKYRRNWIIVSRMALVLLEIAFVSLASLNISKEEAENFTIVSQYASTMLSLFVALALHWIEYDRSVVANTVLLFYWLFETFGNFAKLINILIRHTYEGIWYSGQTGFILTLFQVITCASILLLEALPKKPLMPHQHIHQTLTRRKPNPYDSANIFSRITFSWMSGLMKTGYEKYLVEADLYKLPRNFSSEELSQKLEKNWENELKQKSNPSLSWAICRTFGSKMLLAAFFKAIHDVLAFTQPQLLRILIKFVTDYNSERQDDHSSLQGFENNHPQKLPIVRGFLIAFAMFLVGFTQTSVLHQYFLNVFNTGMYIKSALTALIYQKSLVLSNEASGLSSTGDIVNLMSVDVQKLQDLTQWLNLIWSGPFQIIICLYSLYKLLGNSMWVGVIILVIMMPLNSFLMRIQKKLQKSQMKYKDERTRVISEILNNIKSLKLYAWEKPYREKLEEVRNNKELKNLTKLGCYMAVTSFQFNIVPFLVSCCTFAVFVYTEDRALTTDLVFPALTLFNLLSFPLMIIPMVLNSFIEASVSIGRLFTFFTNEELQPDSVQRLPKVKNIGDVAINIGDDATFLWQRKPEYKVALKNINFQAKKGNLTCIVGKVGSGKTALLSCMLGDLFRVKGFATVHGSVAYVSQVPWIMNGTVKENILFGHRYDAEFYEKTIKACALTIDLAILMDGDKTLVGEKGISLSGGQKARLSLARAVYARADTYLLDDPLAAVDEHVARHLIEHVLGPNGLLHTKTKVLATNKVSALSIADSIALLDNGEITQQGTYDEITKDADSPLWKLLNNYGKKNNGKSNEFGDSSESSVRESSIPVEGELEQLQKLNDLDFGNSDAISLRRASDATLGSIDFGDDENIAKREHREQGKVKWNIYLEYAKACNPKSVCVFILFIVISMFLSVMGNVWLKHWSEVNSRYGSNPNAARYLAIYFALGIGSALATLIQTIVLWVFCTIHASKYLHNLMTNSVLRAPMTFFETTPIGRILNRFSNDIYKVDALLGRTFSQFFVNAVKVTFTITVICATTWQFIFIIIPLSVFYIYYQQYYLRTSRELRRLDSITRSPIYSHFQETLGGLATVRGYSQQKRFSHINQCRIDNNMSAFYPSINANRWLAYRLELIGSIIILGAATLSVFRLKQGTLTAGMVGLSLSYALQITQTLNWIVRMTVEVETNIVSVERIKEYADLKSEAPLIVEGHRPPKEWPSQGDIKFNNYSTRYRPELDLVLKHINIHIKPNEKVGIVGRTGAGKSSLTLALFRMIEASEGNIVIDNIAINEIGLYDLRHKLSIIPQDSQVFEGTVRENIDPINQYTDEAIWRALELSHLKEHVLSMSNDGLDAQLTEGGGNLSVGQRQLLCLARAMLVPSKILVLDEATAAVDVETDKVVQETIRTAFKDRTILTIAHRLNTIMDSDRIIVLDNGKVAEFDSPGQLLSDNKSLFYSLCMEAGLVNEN
T3 sequence (Q9C8G9 whole entry): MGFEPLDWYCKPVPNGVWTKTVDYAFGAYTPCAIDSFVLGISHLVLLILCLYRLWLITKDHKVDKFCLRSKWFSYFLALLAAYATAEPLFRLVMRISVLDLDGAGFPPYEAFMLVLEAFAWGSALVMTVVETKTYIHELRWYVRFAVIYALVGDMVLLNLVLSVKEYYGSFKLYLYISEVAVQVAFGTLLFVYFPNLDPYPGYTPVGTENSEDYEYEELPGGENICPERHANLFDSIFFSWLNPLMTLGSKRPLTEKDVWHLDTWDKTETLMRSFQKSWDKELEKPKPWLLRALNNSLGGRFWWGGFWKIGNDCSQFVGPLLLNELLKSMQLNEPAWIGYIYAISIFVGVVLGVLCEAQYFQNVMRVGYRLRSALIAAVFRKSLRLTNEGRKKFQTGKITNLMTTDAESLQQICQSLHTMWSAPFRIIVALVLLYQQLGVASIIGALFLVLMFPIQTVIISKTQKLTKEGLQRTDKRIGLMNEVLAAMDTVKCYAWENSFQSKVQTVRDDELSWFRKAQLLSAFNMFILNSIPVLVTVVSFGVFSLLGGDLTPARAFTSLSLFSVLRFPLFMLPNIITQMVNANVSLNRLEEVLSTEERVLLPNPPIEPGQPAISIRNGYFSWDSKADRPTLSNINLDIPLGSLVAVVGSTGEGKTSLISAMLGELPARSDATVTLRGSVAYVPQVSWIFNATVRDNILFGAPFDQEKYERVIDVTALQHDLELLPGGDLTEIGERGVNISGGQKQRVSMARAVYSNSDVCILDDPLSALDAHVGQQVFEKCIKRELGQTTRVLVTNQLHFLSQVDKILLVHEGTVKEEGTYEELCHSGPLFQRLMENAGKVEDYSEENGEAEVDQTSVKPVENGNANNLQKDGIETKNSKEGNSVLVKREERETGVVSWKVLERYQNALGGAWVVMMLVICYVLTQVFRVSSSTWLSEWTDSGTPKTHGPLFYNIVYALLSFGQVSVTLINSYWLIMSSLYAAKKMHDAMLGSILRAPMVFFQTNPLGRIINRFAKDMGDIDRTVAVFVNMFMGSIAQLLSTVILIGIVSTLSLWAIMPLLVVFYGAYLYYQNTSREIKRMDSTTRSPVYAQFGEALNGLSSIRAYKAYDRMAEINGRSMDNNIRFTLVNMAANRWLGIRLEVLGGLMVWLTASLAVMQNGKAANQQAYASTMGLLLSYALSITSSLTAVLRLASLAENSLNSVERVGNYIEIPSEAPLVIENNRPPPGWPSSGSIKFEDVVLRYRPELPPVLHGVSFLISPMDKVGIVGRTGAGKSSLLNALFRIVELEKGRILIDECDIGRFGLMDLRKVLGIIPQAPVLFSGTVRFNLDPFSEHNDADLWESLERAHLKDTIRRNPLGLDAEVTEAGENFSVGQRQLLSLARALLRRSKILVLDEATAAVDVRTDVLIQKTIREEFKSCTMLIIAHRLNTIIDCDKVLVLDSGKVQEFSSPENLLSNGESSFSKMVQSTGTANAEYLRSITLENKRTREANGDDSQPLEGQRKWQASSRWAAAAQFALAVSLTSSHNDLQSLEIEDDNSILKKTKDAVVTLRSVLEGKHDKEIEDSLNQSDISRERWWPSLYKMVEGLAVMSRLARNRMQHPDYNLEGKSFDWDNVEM
T2 sequence (Q42093 whole entry): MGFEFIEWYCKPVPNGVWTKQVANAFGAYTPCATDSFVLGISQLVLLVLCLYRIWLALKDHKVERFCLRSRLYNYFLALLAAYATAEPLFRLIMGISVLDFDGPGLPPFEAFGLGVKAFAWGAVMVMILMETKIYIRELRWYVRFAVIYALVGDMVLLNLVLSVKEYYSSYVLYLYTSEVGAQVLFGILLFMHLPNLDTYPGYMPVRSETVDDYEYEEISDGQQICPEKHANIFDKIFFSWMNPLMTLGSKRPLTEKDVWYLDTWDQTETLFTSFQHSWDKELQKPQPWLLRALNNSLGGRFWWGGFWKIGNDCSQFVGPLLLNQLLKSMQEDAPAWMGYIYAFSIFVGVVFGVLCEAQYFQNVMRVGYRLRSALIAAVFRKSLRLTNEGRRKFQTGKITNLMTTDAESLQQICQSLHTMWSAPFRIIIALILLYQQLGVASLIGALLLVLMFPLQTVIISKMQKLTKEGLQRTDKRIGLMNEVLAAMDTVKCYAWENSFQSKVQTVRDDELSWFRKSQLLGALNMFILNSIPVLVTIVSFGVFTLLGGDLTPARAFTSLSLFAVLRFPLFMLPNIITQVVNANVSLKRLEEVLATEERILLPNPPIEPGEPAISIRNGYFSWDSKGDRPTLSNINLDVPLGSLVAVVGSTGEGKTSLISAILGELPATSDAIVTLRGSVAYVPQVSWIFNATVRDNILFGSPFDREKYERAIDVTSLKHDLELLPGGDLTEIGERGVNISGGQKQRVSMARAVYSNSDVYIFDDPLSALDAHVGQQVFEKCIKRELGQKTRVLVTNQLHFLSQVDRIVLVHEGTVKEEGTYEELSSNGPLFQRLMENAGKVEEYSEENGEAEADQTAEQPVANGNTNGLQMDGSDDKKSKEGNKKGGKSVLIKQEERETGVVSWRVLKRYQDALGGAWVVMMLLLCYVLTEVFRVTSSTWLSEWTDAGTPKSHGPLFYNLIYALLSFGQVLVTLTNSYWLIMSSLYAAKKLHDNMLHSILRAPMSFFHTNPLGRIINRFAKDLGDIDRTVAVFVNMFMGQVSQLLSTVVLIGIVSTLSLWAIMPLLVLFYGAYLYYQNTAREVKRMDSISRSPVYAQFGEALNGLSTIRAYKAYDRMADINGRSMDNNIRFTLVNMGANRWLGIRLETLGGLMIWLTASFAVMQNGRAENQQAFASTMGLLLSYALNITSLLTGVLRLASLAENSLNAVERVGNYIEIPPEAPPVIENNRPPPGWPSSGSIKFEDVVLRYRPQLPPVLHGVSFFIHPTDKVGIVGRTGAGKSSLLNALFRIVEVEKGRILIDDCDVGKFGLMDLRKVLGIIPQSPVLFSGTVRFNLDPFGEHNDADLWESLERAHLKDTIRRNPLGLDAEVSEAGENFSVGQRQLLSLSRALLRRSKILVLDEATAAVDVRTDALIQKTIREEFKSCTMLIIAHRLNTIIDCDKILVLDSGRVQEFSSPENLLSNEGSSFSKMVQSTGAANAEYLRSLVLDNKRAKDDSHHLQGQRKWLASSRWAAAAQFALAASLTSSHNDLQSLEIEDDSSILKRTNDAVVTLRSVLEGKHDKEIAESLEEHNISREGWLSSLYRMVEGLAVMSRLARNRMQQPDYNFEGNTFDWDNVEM

With `O=[N+]([O-])c1ccc(Cl)c([N+](=O)[O-])c1` [CDNB, 1-chloro-2,4-dinitrobenzene], the inhibition of growth at 40 µM in experiment [1] (40 μM CDNB) is 65%; in experiment [3] (40 μM CDNB), 14%. For the same compound, the inhibition of growth at 50 µM in experiment [1] (50 μM CDNB) amounted to 82%; in [3] (50 μM CDNB) it was 31%. The inhibition of growth at 60 µM in experiment [1] (60 μM CDNB) was determined as 85%; in [3] (60 μM CDNB), 59%. Further, the inhibition of growth at 70 µM in experiment [1] (70 μM CDNB) turned out to be 91%; in experiment [3] (70 μM CDNB) it was 92%. The fold induction at 150 µM in experiment [2] turned out to be 1.7; in experiment [4], 2.8.

Regarding `CCN1C(=O)CC(SC[C@H](NC(=O)CC[C@H](N)C(=O)O)C(=O)NCC(=O)O)C1=O` (stereo partly shown) [glutathione-S-N-ethylmaleimide], in experiment [5], the Km is 500 µM.

For the compound cyanin-3-glucoside-GS [C3G-GS], the “rate of C3G-GS uptake” value was determined as 48.4±2.2 nmol/mg/10 min in experiment [6] and 7.9±0.7 in experiment [7]. The “Vmax for MgATP-dependent, uncoupler-insensitive uptake” value came out at 45.3 ± 6.5 nmol/mg/10 min in [8] and 79.1 ± 14.7 nmol/mg/10 min in [10]. The values for the Km in [8] (setting [11]) and in experiment [10] (setting [11]) were 45.7 ± 14 µM and 39.5 ± 16.6 µM, respectively. In addition, the Km estimated previously in this system in [9] is 46 µM. The “Vmax of GS-X pump” value in experiment [9] (comparison value for C3G-GS) was 45 nmol/mg/min.
